Assay results taken from ChEMBL document CHEMBL5247649, “Comparative Efficacy and Selectivity of Pharmacological Inhibitors of DYRK and CLK Protein Kinases” (J Med Chem, 2023).

Key:
[1] = biological target: Dual specificity protein kinase CLK3 (Homo sapiens, UniProt P49761); assay: biochemical; assay type: cell-based, Sf9
[2] = biological target: Dual specificity protein kinase CLK2 (Homo sapiens, UniProt P49760); assay: biochemical
[3] = biological target: Casein kinase I isoform epsilon (Homo sapiens, UniProt P49674); assay: biochemical; assay type: cell-based, Sf9
Casein kinase I isoform epsilon, sequence (P49674 whole entry, canonical isoform): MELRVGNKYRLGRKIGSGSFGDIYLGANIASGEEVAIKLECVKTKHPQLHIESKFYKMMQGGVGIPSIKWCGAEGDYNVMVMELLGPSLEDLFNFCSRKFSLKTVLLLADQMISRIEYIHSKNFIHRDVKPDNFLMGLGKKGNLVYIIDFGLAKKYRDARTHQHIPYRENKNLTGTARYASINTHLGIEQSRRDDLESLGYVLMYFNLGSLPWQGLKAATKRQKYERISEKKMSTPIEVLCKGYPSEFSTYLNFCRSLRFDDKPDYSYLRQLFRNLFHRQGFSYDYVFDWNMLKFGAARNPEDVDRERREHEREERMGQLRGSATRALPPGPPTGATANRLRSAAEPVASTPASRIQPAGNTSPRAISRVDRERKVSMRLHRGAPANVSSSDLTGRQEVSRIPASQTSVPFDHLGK

[4] = biological target: Cyclin-dependent kinase 5/CDK5 activator 1 (Homo sapiens, UniProt Q00535); assay: biochemical; assay type: cell-based, Sf9
Cyclin-dependent kinase 5/CDK5 activator 1, sequence (Q00535 whole entry): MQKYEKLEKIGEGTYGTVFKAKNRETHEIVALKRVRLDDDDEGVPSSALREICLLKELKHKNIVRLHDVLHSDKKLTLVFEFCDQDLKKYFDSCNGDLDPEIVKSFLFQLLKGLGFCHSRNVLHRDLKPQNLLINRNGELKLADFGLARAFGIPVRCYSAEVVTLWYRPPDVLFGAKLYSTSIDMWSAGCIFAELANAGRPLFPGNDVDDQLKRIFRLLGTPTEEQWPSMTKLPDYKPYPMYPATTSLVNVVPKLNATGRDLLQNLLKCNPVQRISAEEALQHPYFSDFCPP
Cyclin-dependent kinase 5/CDK5 activator 1, sequence (Q15078 whole entry, further chain): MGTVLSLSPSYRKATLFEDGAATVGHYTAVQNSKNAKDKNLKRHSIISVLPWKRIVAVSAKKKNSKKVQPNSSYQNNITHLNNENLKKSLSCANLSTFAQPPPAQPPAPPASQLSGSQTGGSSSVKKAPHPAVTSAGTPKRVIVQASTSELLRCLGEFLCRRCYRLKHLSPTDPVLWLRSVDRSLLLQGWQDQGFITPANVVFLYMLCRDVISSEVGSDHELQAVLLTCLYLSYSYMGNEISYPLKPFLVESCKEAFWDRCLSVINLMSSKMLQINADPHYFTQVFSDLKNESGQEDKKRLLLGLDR

[5] = biological target: T1, Dual specificity tyrosine-phosphorylation-regulated kinase 4 (Homo sapiens, UniProt Q9NR20); assay: biochemical; assay type: cell-based, Sf9
T1 sequence (Q9NR20 whole entry): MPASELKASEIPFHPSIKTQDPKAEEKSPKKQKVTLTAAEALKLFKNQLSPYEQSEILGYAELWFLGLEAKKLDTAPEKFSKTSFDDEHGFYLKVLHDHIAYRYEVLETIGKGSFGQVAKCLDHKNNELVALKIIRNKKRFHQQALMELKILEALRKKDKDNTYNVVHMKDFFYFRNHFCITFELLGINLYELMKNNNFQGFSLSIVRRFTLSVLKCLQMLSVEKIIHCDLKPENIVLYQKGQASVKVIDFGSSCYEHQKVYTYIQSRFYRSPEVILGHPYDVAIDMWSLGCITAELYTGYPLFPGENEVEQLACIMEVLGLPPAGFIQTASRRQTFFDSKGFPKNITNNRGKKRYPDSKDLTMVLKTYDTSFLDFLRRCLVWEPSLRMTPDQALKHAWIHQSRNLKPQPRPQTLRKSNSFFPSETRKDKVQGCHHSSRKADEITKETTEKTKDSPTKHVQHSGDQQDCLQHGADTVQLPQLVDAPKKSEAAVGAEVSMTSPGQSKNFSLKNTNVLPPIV

[6] = biological target: T2, Dual specificity protein kinase CLK1 (Homo sapiens, UniProt P49759); assay: biochemical; assay type: cell-based, Sf9
T2 sequence (P49759 whole entry): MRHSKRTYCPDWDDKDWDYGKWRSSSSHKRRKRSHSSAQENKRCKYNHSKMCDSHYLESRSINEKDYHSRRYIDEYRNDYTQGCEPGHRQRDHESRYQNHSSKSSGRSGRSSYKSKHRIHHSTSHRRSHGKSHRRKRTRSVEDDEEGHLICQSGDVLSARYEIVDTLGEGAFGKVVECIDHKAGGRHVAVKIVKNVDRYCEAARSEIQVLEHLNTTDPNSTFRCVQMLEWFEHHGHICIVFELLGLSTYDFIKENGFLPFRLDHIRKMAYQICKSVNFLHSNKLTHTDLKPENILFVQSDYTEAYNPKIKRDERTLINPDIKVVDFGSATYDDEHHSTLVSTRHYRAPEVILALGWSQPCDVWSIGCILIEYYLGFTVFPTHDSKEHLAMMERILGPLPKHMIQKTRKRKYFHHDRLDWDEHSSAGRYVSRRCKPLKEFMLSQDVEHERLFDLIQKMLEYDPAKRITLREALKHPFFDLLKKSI

[7] = biological target: T3, Dual specificity tyrosine-phosphorylation-regulated kinase 1A (Homo sapiens, UniProt Q13627); assay: biochemical
[8] = biological target: T4, Glycogen synthase kinase-3 beta (Homo sapiens, UniProt P49841); assay: biochemical; assay type: cell-based, Sf9
T4 sequence (P49841 whole entry): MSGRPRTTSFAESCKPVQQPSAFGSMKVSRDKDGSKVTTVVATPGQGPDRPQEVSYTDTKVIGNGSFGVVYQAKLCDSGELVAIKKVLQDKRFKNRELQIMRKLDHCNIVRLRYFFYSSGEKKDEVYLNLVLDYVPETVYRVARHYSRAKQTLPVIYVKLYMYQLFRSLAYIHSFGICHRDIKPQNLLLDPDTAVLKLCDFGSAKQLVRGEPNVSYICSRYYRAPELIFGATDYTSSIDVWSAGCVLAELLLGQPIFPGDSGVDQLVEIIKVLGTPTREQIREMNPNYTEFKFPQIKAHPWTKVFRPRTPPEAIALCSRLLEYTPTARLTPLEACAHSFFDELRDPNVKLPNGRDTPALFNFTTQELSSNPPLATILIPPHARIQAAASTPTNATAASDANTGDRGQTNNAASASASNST

[9] = biological target: T5, Dual specificity tyrosine-phosphorylation-regulated kinase 3 (Homo sapiens, UniProt O43781); assay: biochemical; assay type: cell-based, Sf9
T5 sequence (O43781 whole entry): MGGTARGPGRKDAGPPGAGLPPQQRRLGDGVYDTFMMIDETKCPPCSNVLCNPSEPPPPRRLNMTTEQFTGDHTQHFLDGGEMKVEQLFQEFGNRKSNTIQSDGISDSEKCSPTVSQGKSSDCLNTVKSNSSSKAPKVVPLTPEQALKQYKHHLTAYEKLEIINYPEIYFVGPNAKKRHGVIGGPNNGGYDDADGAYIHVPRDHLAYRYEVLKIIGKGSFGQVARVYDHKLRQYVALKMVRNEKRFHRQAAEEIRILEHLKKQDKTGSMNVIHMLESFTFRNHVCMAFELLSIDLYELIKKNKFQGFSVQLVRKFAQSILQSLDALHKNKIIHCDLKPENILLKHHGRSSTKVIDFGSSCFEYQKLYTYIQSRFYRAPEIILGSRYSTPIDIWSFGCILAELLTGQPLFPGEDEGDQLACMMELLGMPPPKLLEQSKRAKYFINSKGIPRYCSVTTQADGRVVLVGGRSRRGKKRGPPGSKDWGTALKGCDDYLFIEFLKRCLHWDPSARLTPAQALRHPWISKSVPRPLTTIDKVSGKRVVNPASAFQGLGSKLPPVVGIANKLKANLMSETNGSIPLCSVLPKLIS

[10] = biological target: Dual specificity protein kinase CLK4 (Homo sapiens, UniProt Q9HAZ1); assay: biochemical
Dual specificity protein kinase CLK4, sequence (Q9HAZ1 whole entry): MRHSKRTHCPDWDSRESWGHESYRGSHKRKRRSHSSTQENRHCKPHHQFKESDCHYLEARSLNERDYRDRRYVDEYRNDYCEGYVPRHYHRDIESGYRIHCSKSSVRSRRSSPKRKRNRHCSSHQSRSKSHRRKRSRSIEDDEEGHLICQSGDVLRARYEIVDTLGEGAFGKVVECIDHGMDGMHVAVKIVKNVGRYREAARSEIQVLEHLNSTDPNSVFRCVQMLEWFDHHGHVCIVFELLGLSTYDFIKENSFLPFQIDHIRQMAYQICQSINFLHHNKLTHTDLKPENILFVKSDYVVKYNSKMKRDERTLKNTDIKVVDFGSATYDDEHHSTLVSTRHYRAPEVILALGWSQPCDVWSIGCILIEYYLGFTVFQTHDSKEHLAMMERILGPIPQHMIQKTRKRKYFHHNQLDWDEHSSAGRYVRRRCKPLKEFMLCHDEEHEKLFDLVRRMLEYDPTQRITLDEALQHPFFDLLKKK

[11] = biological target: T6, Dual specificity tyrosine-phosphorylation-regulated kinase 2 (Homo sapiens, UniProt Q92630); assay: biochemical; assay type: cell-based, Sf9
T6 sequence (Q92630 whole entry): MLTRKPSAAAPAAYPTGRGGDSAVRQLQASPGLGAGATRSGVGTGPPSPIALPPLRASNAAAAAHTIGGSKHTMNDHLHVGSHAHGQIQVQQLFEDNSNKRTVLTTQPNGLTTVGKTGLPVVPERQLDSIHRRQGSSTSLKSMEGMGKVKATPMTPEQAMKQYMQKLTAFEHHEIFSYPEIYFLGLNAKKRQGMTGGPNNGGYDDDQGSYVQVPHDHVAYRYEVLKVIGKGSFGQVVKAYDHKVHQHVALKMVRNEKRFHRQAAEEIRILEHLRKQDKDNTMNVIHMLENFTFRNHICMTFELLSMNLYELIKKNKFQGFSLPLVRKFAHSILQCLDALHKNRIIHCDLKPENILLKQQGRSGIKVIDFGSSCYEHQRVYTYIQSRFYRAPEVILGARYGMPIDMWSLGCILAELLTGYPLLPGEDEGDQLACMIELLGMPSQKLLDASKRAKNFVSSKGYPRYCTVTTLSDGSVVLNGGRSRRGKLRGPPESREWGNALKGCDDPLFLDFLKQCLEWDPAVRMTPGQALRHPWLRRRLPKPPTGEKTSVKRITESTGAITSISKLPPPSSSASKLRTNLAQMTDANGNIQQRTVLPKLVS

in vitro = settings: mouse, ht-22
[12] = biological target: T2, Dual specificity protein kinase CLK1; assay: biochemical; assay type: cell-based, Sf9; settings: read-out: IC50
[13] = biological target: T3, Dual specificity tyrosine-phosphorylation-regulated kinase 1A
[14] = biological target: T4, Glycogen synthase kinase-3 beta
[15] = biological target: T2, Dual specificity protein kinase CLK1

Dual specificity protein kinase CLK3, sequence (P49761 whole entry): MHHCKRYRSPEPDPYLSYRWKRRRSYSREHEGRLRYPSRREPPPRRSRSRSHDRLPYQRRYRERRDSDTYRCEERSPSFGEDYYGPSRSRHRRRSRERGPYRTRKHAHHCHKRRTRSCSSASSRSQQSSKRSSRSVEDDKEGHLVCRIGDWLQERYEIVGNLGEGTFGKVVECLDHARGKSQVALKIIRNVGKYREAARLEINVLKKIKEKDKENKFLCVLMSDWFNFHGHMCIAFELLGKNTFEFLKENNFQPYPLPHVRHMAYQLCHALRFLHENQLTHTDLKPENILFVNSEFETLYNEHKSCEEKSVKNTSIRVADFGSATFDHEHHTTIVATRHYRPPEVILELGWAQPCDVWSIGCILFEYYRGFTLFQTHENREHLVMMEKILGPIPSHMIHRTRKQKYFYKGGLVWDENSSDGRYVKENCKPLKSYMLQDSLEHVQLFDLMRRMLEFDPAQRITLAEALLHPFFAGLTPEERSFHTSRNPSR
Dual specificity protein kinase CLK2, sequence (P49760 whole entry, canonical isoform): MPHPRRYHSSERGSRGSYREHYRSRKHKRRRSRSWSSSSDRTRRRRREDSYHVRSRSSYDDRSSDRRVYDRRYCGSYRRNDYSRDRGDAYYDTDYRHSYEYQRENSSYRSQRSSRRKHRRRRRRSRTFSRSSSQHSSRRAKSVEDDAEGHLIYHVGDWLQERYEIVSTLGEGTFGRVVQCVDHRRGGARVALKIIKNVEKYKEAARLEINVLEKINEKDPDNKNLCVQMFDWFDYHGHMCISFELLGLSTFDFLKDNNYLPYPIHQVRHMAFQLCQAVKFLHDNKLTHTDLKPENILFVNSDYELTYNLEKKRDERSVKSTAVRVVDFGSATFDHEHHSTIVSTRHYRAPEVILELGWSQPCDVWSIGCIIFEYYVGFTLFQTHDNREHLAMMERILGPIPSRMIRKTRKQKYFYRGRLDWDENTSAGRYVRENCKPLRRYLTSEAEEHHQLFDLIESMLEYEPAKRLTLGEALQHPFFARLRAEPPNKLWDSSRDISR

Compound | IC50 [1] | IC50 [2] | IC50 [3] | IC50 [4] | IC50 [5] | IC50 [6] | IC50 [7] | IC50 [8] | IC50 [9] | IC50 [10] | IC50 [11] | IC50 at 48 h (in vitro) | IC50 [12] | IC50 [13] | Kd [14] | Kd [15]
CCOc1ccc2nc(N3CCCN(C(=S)Nc4ccccc4F)CC3)c(C#N)cc2c1 | > 10 µM | > 10 µM | > 10 µM | > 10 µM | > 10 µM | > 10 µM | > 10 µM | > 10 µM | > 10 µM | > 10 µM | > 10 µM | > 100 µM |  |  |  | 
CCN(CC)Cc1ccc(OC)c(-c2cc3c(-c4ccc(C(=O)O)c(C(C)C)c4)ccnc3[nH]2)c1 | 2.41 µM | 0.772 µM | > 10 µM | > 10 µM | > 10 µM | 0.607 µM | 8.26 µM | 1.33 µM | > 10 µM | 0.672 µM | > 10 µM | 8.1 µM |  |  |  | 
Cc1cccc(N(C)c2nccc(-c3cnn4ncccc34)n2)c1 | > 10 µM | 0.269 µM | > 10 µM | > 10 µM | > 10 µM | 0.125 µM | 0.435 µM | > 10 µM | > 10 µM | 0.0909 µM | > 10 µM | 30.1 µM |  |  |  | 
O=C1Nc2cc(S(=O)(=O)Cc3c(Cl)cccc3Cl)ccc2S/C1=C\c1ccc(O)c([N+](=O)[O-])c1 | > 10 µM | > 10 µM | 4.38 µM | > 10 µM | > 10 µM | 6.07 µM | 3.09 µM | > 10 µM | > 10 µM | > 10 µM | 1.75 µM | 1 µM |  |  |  | 
O=C(O[C@@H]1Cc2c(O)cc(O)cc2O[C@@H]1c1cc(O)c(O)c(O)c1)c1cc(O)c(O)c(O)c1 [EPIGALOCATECHIN GALLATE] | 2.58 µM | 1.32 µM | 0.365 µM | 0.431 µM | 5.2 µM | 0.0716 µM | 0.491 µM | 6.27 µM | 1.62 µM | 0.368 µM | 2 µM | 23.8 µM | > 10 µM | 0.766 µM |  | 
Cn1cc(-c2ccc3occ(-c4cccc(-c5ccncc5)c4)c3n2)cn1 |  |  | > 10 µM | > 10 µM | > 10 µM |  | 1.14 µM | 2.86 µM | > 10 µM | 0.0839 µM | 3.04 µM | 2.6 µM |  |  |  | 
CN1CCN(C(=O)C(C)(C)c2ccc(C(=O)Cc3cn4cc(-c5ccncc5)ccc4n3)cc2)CC1 | 0.74 µM | 0.147 µM | > 10 µM | > 10 µM | > 10 µM | 0.107 µM | 0.253 µM | > 10 µM | > 10 µM | 0.0491 µM | > 10 µM | 7.9 µM | 0.121 µM | 0.0728 µM |  | 
CC(=O)c1nccc2c1[nH]c1ccccc12 | > 10 µM | > 10 µM | > 10 µM | > 10 µM | > 10 µM | > 10 µM | > 10 µM | > 10 µM | > 10 µM | > 10 µM | > 10 µM | > 100 µM |  |  |  | 
Cc1cc(C(=O)NC2Nc3cccc(C)c3N2[C@H]2CCCCN(C(=O)/C=C/CN(C)C)C2)ccn1 (stereo not given in full) | > 10 µM | 5.96 µM | > 10 µM | > 10 µM | > 10 µM | > 10 µM | > 10 µM | 5.26 µM | > 10 µM | > 10 µM | > 10 µM | 60 µM |  |  |  | 
CCNc1cc(Nc2ccc(C(=O)N3CCC(N4CCOCC4)CC3)cc2OC)nc2[nH]cc(C(F)(F)F)c12 | 2.05 µM | 0.0405 µM | 7.99 µM | > 10 µM | > 10 µM | 0.0713 µM |  | > 10 µM | 7.15 µM | 0.0211 µM | > 10 µM | 19.9 µM | 0.0929 µM |  | > 10 µM | 1.39 nM
COc1cc(CCc2c(O)ccc(O[C@@H]3O[C@H](CO)[C@@H](O)[C@H](O)[C@H]3O)c2C(C)=O)ccc1O [SCORZODIHYDROSTILBENE A] | > 10 µM | > 10 µM | > 10 µM | > 10 µM | > 10 µM | > 10 µM | 2.3 µM | > 10 µM | > 10 µM | > 10 µM | > 10 µM | > 100 µM |  |  |  | 
CC(C)(c1ccc(O)cc1)c1ccc(O)cc1 [BISPHENOL A] | > 10 µM | > 10 µM | > 10 µM | > 10 µM | > 10 µM | > 10 µM | > 10 µM | > 10 µM | > 10 µM | > 10 µM | > 10 µM | 97 µM |  |  |  | 
Cc1ccc([N+](=O)[O-])cc1S(=O)(=O)N(C)/N=C/c1cnc2ccc(Br)cn12 | 0.0119 µM | 0.0011 µM | 0.405 µM | 0.0245 µM | 2.59 µM | 0.0188 µM |  | 0.0176 µM | 0.0104 µM | 0.0069 µM | 0.118 µM | 0.16 µM | 0.0308 µM |  | 0.00393 µM | 0.056 nM
COc1cc(N2CCN(C)CC2)ccc1Nc1nccc(-c2cn(C)c3cnccc23)n1 | > 10 µM | 3.5 µM | > 10 µM | 1.06 µM | 6.25 µM | 0.568 µM |  | > 10 µM | 1.22 µM | 0.403 µM | 0.764 µM | 27.8 µM | 0.175 µM |  | > 10 µM | 7.35 nM
